Laboratory results published in patent US9604933B2, “Pyrazolochalcones as potential anticancer agents” (COUNCIL OF SCIENTIFIC AND INDUSTRIAL RESEARCH, priority 2013, dated 2017).

Tests used:
[1] = tested on: HT29; assay: NCI SRB cytotoxicity, colon HT29; format: cell-based; conditions: Homo sapiens, HT-29, 48 h exposure
Protocol: (§1) The pyrazolochalcones (7e, 8e, 10e, 11e, 12e, 13e and 8f) have been tested against fifty nine human tumor cell lines derived from nine cancer types (leukemia, non-small cell lung cancer, colon cancer, CNS cancer, melanoma, ovarian cancer, renal cancer, prostate cancer and breast cancer) as per the NCI protocol. For each compound, dose response curves for individual cell lines have been measured at a minimum of five concentrations at 10 fold dilutions. A protocol of 48 h continuous drug exposure has been used, and a sulforhodamine B (SRB) protein assay has been used to estimate cell viability or growth. The concentration for 50% cell growth inhibition (GI50), 50% cell death (LC50, 50% growth) and total cell growth inhibition (TGI, 0% growth) values were tabulated (Table-1). DMSO was used as control to calculate the values of GI50, LC50 and TGI. The compounds 7e, 8e, 10e, 11e, 12e, 13e and 8f has been evaluated for their in vitro cytotoxicity in […] cell lines from nine human cancer types of leukemia (K-562, SR), non-small cell lung (Hop-62, NCI-H226, NCI-H522), colon (HCT-116, HCT-15, HCC-2998), CNS (SF-539), melanoma (SK-MEL-5, UACC-62, M14), ovarian (IGROV1), renal (A498), prostate (PC3) and breast (BT-549, MDA-MB-435, HS578T) origin. The results are expressed as percent of cell growth determined relative to that of untreated control cells (Table 2).

[2] = tested on: HL-60(TB); assay: NCI SRB cytotoxicity, leukemia HL-60(TB); format: cell-based; conditions: Homo sapiens, 48 h exposure
Protocol: as §1

[3] = tested on: LOX IMVI; assay: NCI SRB cytotoxicity, melanoma LOX IMVI; format: cell-based; conditions: Homo sapiens, 48 h exposure
Protocol: as §1

[4] = tested on: MALME-3M; assay: NCI SRB cytotoxicity, melanoma MALME-3M; format: cell-based; conditions: Homo sapiens, 48 h exposure
Protocol: as §1

[5] = tested on: ACHN; assay: NCI SRB cytotoxicity, renal ACHN; format: cell-based; conditions: Homo sapiens, 48 h exposure
Protocol: as §1

[6] = tested on: 786-0; assay: NCI SRB cytotoxicity, renal 786-0; format: cell-based; conditions: Homo sapiens, 48 h exposure
Protocol: as §1

[7] = tested on: Non-small cell lung; assay: NCI SRB cytotoxicity, non-small cell lung panel average; format: cell-based, human; conditions: average of cell lines
Protocol: as §1
(§2) Each cancer type represents the average of six to eight different cancer cell lines.

[8] = tested on: NCI/ADR-RES; assay: NCI SRB cytotoxicity, ovarian NCI/ADR-RES; format: cell-based; conditions: Homo sapiens, 48 h exposure
Protocol: as §1

[9] = tested on: COLO-205; assay: NCI SRB cytotoxicity, colon COLO-205; format: cell-based; conditions: Homo sapiens, 48 h exposure
Protocol: as §1

[10] = tested on: Melanoma; assay: NCI SRB cytotoxicity, melanoma panel average; format: cell-based, human; conditions: average of cell lines
Protocol: as §1, §2

[11] = tested on: SK-MEL-5; assay: NCI SRB cytotoxicity, melanoma SK-MEL-5; format: cell-based; conditions: Homo sapiens, 48 h exposure
Protocol: as §1

[12] = tested on: NCI-H522; assay: NCI SRB cytotoxicity, non-small cell lung NCI-H522; format: cell-based; conditions: Homo sapiens, 48 h exposure
Protocol: as §1

[13] = tested on: PC-3; assay: NCI SRB cytotoxicity, prostate PC-3; format: cell-based; conditions: Homo sapiens, 48 h exposure
Protocol: as §1

[14] = tested on: K-562; assay: NCI SRB cytotoxicity, leukemia K-562; format: cell-based; conditions: Homo sapiens, K562, 48 h exposure
Protocol: as §1

[15] = tested on: M14; assay: NCI SRB cytotoxicity, melanoma M14; format: cell-based; conditions: Homo sapiens, 48 h exposure
Protocol: as §1

[16] = tested on: MOLT-4; assay: NCI SRB cytotoxicity, leukemia MOLT-4; format: cell-based; conditions: Homo sapiens, 48 h exposure
Protocol: as §1

[17] = tested on: SNB-75; assay: NCI SRB cytotoxicity, CNS SNB-75; format: cell-based; conditions: Homo sapiens, 48 h exposure
Protocol: as §1

[18] = tested on: CCRF-CEM; assay: NCI SRB cytotoxicity, leukemia CCRF-CEM; format: cell-based; conditions: Homo sapiens, 48 h exposure
Protocol: as §1

[19] = tested on: MDA-MB-435; assay: NCI SRB cytotoxicity, melanoma MDA-MB-435; format: cell-based; conditions: Homo sapiens, Melanoma panel MDA-MB-435, 48 h exposure
Protocol: as §1

[20] = tested on: Breast; assay: NCI SRB cytotoxicity, breast panel average; format: cell-based, human; conditions: average of cell lines
Protocol: as §1, §2

[21] = tested on: OVCAR-8; assay: NCI SRB cytotoxicity, ovarian OVCAR-8; format: cell-based; conditions: Homo sapiens, 48 h exposure
Protocol: as §1

[22] = tested on: SK-MEL-28; assay: NCI SRB cytotoxicity, melanoma SK-MEL-28; format: cell-based; conditions: Homo sapiens, 48 h exposure
Protocol: as §1

[23] = tested on: NCIH322M; assay: NCI SRB cytotoxicity, non-small cell lung NCIH322M; format: cell-based; conditions: Homo sapiens, NCI-H322M, 48 h exposure
Protocol: as §1

[24] = tested on: Renal; assay: NCI SRB cytotoxicity, renal panel average; format: cell-based, human; conditions: average of cell lines
Protocol: as §1, §2

[25] = tested on: Colon; assay: NCI SRB cytotoxicity, colon panel average; format: cell-based, human; conditions: average of cell lines
Protocol: as §1, §2

[26] = tested on: BT-549; assay: NCI SRB cytotoxicity, breast BT-549; format: cell-based; conditions: Homo sapiens, 48 h exposure
Protocol: as §1

[27] = tested on: Prostate; assay: NCI SRB cytotoxicity, prostate panel average; format: cell-based, human; conditions: average of cell lines
Protocol: as §1, §2

[28] = tested on: SF-539; assay: NCI SRB cytotoxicity, CNS SF-539; format: cell-based; conditions: Homo sapiens, 48 h exposure
Protocol: as §1

[29] = tested on: T-47D; assay: NCI SRB cytotoxicity, breast T-47D; format: cell-based; conditions: Homo sapiens, T47D, 48 h exposure
Protocol: as §1

[30] = tested on: IGROV1; assay: NCI SRB cytotoxicity, ovarian IGROV1; format: cell-based; conditions: Homo sapiens, IGROV-1, 48 h exposure
Protocol: as §1

[31] = tested on: MCF7; assay: NCI SRB cytotoxicity, breast MCF7; format: cell-based; conditions: Homo sapiens, 48 h exposure
Protocol: as §1

[32] = tested on: UO-31; assay: NCI SRB cytotoxicity, renal UO-31; format: cell-based; conditions: Homo sapiens, 48 h exposure
Protocol: as §1

[33] = tested on: SNB-19; assay: NCI SRB cytotoxicity, CNS SNB-19; format: cell-based; conditions: Homo sapiens, 48 h exposure
Protocol: as §1

[34] = tested on: OVCAR-3; assay: NCI SRB cytotoxicity, ovarian OVCAR-3; format: cell-based; conditions: Homo sapiens, 48 h exposure
Protocol: as §1

[35] = tested on: SK-MEL-2; assay: NCI SRB cytotoxicity, melanoma SK-MEL-2; format: cell-based; conditions: Homo sapiens, 48 h exposure
Protocol: as §1

[36] = tested on: RXF 393; assay: NCI SRB cytotoxicity, renal RXF 393; format: cell-based; conditions: Homo sapiens, 48 h exposure
Protocol: as §1

[37] = tested on: SK-OV-3; assay: NCI SRB cytotoxicity, ovarian SK-OV-3; format: cell-based; conditions: Homo sapiens, 48 h exposure
Protocol: as §1

[38] = tested on: HCT-116; assay: NCI SRB cytotoxicity, colon HCT-116; format: cell-based; conditions: Homo sapiens, 48 h exposure
Protocol: as §1

[39] = Homo sapiens, read-out: Log10 GI50 (concentration in mol/L causing 50% growth inhibition) (converted)
[40] = Homo sapiens, read-out: Log10 LC50 (concentration in mol/L causing 50% cell death) (converted)

With COc1cc(C(=O)/C=C/c2cc(-c3cc(OC)c(OC)c(OC)c3)n[nH]2)cc(OC)c1OC [10e, (E)-1-(3,4,5-trimethoxyphenyl)-3-(3-(3,4,5-trimethoxyphenyl)-1H-pyrazol-5-yl)prop-2-en-1-one] the GI50 [1] was 1790 nM, the GI50 [2] was 1930 nM and the GI50 [3] was 1520 nM. It also gave a GI50 [4] of 1860 nM, a GI50 [5] of 1620 nM and a GI50 [6] of 1560 nM. For the same compound, the GI50 [7, 39] was 1290 nM, the LC50 [7, 40] was 13500 nM and the “Log10 TGI (concentration in mol/L causing total growth inhibition (0% growth))” value [7] was −5.42 mol/L. The GI50 [8] was 3470 nM, the GI50 [9] was 1750 nM and the GI50 [10, 39] was 1700 nM. For the same compound, the LC50 [10, 40] was 6460 nM, the “Log10 TGI (concentration in mol/L causing total growth inhibition)” value [10] was −5.47 mol/L and the GI50 [11] was 1570 nM. It also gave a GI50 [12] of 520 nM, a GI50 [13] of 1470 nM and a GI50 [14] of 2960 nM. The GI50 [15] was 1790 nM, the GI50 [16] was 2320 nM and the GI50 [17] was 1540 nM. It also gave a GI50 [18] of 1680 nM, a GI50 [19] of 1490 nM and a GI50 [20, 39] of 1350 nM. For the same compound, the CC50 [20, 40] was 10000 nM, the “Log10 TGI (concentration in mol/L causing total growth inhibition (0% growth))” value [20] was −5.35 mol/L and the GI50 [21] was 1580 nM. The GI50 [22] was 1820 nM, the GI50 [23] was 2000 nM and the GI50 [24, 39] was 1580 nM. For the same compound, the CC50 [24, 40] was 7590 nM, the “Log10 TGI (concentration in mol/L causing total growth inhibition (0% growth))” value [24] was −5.45 mol/L and the GI50 [25, 39] was 1620 nM. For the same compound, the LC50 [25, 40] was 6030 nM, the “Log10 TGI (concentration in mol/L causing total growth inhibition)” value [25] was −5.50 mol/L and the GI50 [26] was 1570 nM. For the same compound, the GI50 [27, 39] was 1480 nM, the CC50 [27, 40] was 7410 nM and the “Log10 TGI (concentration in mol/L causing total growth inhibition (0% growth))” value [27] was −5.48 mol/L. It also gave a GI50 [28] of 1290 nM, a GI50 [29] of 1130 nM and a GI50 [30] of 3140 nM. The GI50 [31] was 640 nM, the GI50 [32] was 1190 nM and the GI50 [33] was 1660 nM. For the same compound, the GI50 [34] was 1750 nM, the GI50 [35] was 1960 nM and the GI50 [36] was 1260 nM. It also gave a GI50 [37] of 3200 nM and a GI50 [38] of 1310 nM.
